Data taken from publication PMC11547735, “Effect of Oral Administration of Collagen Peptide OG-5 on Advanced Atherosclerosis Development in ApoE^−/− Mice” (Nutrients, 2024).
Read-outs that look alike come from different tables or passages of the source. Square brackets hold non-standard residues; d marks the D form. Peptide text beside a SMILES is read from it. Hyp = O=C(O)[C@@H]1C[C@@H](O)CN1

Experiments:
[1] = Body weight and organ index of ApoE−/− mice after oral administration; type: in vivo, mouse; conditions: n = 8
Protocol: The animal study was performed in compliance with the requirements of the Guide for the Care and Use of Laboratory Animals (NIH publication No.86-23, revised 1996) and was approved by the Welfare Committee of Pony Testing International Group Co., Ltd., Beijing, China (PONY-2021-FL-12, approval date: 5 December 2021). The 7-week-old male ApoE^−/− mice and C57BL/6J mice were purchased from Beijing Vital River Laboratory Animal Technology Co., Ltd. (Beijing, China). The mice were acclimatized for a period of one week in a pathogen-free environment, maintained under a controlled 12-h light/dark cycle at a constant temperature of 21 °C. During this period, they had unrestricted access to a standard rodent chow diet and tap water. Following acclimatization, the mice were assigned to experimental groups randomly, with each group consisting of eight mice.
(§1) The establishment of the AS model in ApoE^−/− mice was divided into two stages. At I stage, 8-week-old male ApoE^−/− mice were fed a Western-type diet (42% fat; 21% anhydrous milk fat, 0.15% cholesterol) for 16 weeks to establish an early AS model. At II stage, a high-fat and high-cholesterol diet (containing 5% cholesterol, 0.5% sodium cholate, 20% fat) was replaced at the 17th week to accelerate the progress of AS till the 24th week. The C57BL6/J mice were utilized as the normal control group and maintained on a standard maintenance diet (20% protein; 5% fat; 50% carbohydrate; 5% cellulose; 10% vitamins and minerals). The mice were subsequently randomized into 4 groups, each consisting of 8 animals: (i) M Group (0.9% saline for ApoE^−/− mice), (ii) Sustainable OG-5 intervention group (50 mg/kg bw) during two stages, (iii) OG-5 treatment group (150 mg/kg bw), and (iv) aspirin group (25 mg/kg bw) at II stage. The OG-5 and aspirin were orally administered to mice every other day. Animals that were not subjected to any treatment and maintained on a normal diet served as the control group (N group). The body weight was monitored every week.
(§2) After 24-week treatment, the mice were fasted overnight and sacrificed. Blood was collected to stand at room temperature for 2 h, and the serum was separated by centrifugation for further analysis.

ApoE^−/− mice [2] = assay: Serum lipid levels in ApoE−/− mice (advanced atherosclerosis model); type: in vivo, mouse; conditions: aspirin 25 mg/kg bw oral every other day at stage II, n = 8
From the text: as §1, §2

Caco-2 cell monolayers [3] = assay: Transport across Caco-2 cell monolayers; type: in vitro ADME, human; conditions: Caco-2 monolayers 21 days, TEER > 800 Ω·cm^2, apical to basolateral, HBSS, pre-incubation 1 h 37 °C, incubation 2 h, HPLC
Protocol: The Caco-2 cell culture and the establishment of the transepithelial transport model were according to the previous study. The Caco-2 cells (10–20 passages) were grown in DMEM supplemented with 10% FBS and 1% penicillin streptomycin at 37 °C.
For the establishment of the transepithelial transport model, Caco-2 cells were seeded onto permeable polyester inserts (12 mm diameter, with a growth surface area of 1.12 cm^2 and a pore size of 0.4 μm, sourced from Costar, Corning, NY, USA) placed in 12-well transwell plates at a density of 1 × 10^5 cells per insert. Over a period of 21 days, the cell culture medium was replaced cautiously every two days to facilitate the differentiation of Caco-2 cells into fully confluent monolayers. […] The Caco-2 cell monolayers were delicately rinsed twice with HBSS and subsequently pre-incubated at 37 °C for 1 h. […]
Transport percentage (%) is calculated by the following equation: (1) Transport percentage %=transported amount of peptide in basolateral side/intial amount of peptide in apical side×100
The apparent permeability coefficient (Papp, cm/s) was calculated as follows:(2) Papp=dQ/dt×1/A×1/C0 where dQ/dt is the permeability rate (mmol/s); A is the area of the membrane (cm^2); C0 is the initial peptide concentration in the donor chamber (mM).

[4] = Peptide stability in plasma; type: in vitro ADME; conditions: rat plasma (heparinized), 0.5 mM, 37 °C, 8 h incubation, 3 kDa ultrafiltration, HPLC-UV peak area
Protocol: The assessment of peptide stability in plasma was conducted with modifications to a previously described method. Briefly, blood samples were collected in heparinized tubes and immediately centrifuged to separate the plasma supernatant. Subsequently, OG-5 was added to achieve a final concentration of 0.5 mM, and the mixture was incubated at 37 °C. At specified time points (0, 0.5, 1.0, 2.0, 4.0, and 8.0 h), the mixture was centrifuged using a 3 kDa ultrafiltration centrifugal tube to separate the filtrate. The filtrate was then analyzed using a Shimadzu LC-15 HPLC system, equipped with an SPD-15 ultraviolet detector (Kyoto, Japan). The HPLC analysis conditions included an injection volume of 10 μL, a flow rate of 1 mL/min, and a gradient elution program: 0–25 min, 0–25% acetonitrile (buffer B); 25–30 min, 25–35% buffer B; 30–35 min, 35–100% buffer B. The quantity of peptide OG-5 in the plasma was determined based on its peak area.

[5] = In vivo absorption experiment on rats; conditions: rat
Protocol: The peptide absorption in vivo was conducted as previously described. The rats were orally administered with peptide OG-5 (1.0 g/kg bw). Blood samples were obtained via a minimal incision at the tail tip at 0, 0.5, 1, and 2 h after oral administration. The collected blood was transferred into 5 kDa ultrafiltration centrifugal tube, and the filtrate was collected for HPLC analysis. The elution program was conducted as follows: 0–5 min, 10–15% buffer B (acetonitrile); 5–20 min, 15–25% buffer B; 20–25 min, 25–100% buffer B.

ApoE^−/− mice [6] = assay: Bleeding time after long-term oral administration (Figure S1); type: in vivo, mouse; conditions: n = 8
From the text: The following supporting information can be downloaded at: https://www.mdpi.com/article/10.3390/nu16213752/s1, Figure S1: Bleeding time after oral administration of peptide OG-5 in ApoE^−/− mice (n = 8).

[7] = cited from earlier work
From the text: The application of peptides is usually limited for the short half-life and is commonly due to fast renal clearance as well as enzymatic degradation, including aminopeptidases, carboxypeptidases, dipeptidases and endopeptidases occurring during systemic circulation.

Caco-2 cell monolayers [8] = conditions: results reported for other peptides; cited from earlier work
From the text: According to the previous study, a Papp value higher than 1.0 × 10^−5 cm ...

[9] = aspirin 25 mg/kg bw oral every other day at stage II
[10] = OG-5 50 mg/kg bw oral every other day, stages I and II
[11] = OG-5 150 mg/kg bw oral every other day at stage II
[12] = long-term oral 150 mg/kg bw, bleeding time

## CC(=O)Oc1ccccc1C(=O)O [Aspirin, reference compound]
[1]; [9]
  Final Body weight: 28.8 ± 1.7 g
  Initial Body weight: 27.7 ± 2.8 g
  Spleen index: 4.99 ± 2.64 mg/g bw
  Thymus index: 0.83 ± 0.12 mg/g bw
ApoE^−/− mice [2]
  HDL-C: 0.64 ± 0.37 mM
  LDL-C: 9.55 ± 1.89 mM
  TC: 41.09 ± 6.05 mM
  TG: 3.43 ± 0.96 mM

## O=C(O)CC[C@H](NC(=O)CNC(=O)[C@@H]1C[C@@H](O)CN1)C(=O)N[C@@H](Cc1ccccc1)C(=O)NCC(=O)O [OG-5, OGEFG] (H-[Hyp]GEFG-OH)
Caco-2 cell monolayers [3]
  Papp: 18 ×10⁻⁶ cm/s
Caco-2 cell monolayers [3]; spread printed ± 0.57
  Transport percentage: 14.40%
[1]; OG-5 50 mg/kg bw oral every other day, stages I and II (24 weeks), mean ± standard
  Initial Body weight: 24.5 ± 1.0 g
[1]; OG-5 50 mg/kg bw oral every other day, stages I and II (24 weeks)
  Final Body weight: 27.7 ± 2.2 g
[1]; [10]
  Spleen index: 4.16 ± 0.99 mg/g bw
  Thymus index: 0.69 ± 0.15 mg/g bw
[1]; OG-5 150 mg/kg bw oral every other day at stage II (weeks 17-24)
  Initial Body weight: 27.8 ± 2.5 g
[1]; [11]
  Final Body weight: 28.9 ± 2.0 g
  Spleen index: 4.80 ± 2.13 mg/g bw
  Thymus index: 0.79 ± 0.13 mg/g bw
[4]
  peptide remaining intact in plasma: > 70%
[4]; read-out: peptide remaining intact in plasma
  remaining at 8 h: 78.2%
[5]; po, 1 g/kg
  Tmax: 2 h
[5]; rats, oral 1.0 g/kg bw, tail blood at 0, 0.5, 1, 2 h, 5 kDa ultrafiltration, HPLC, read-out: peak plasma concentration
  Cmax: 77.8 µM
ApoE^−/− mice [6]; [12]
  bleeding risk compared to aspirin: lower bleeding risk
  bleeding risk compared with M model: a little bleeding risk
ApoE^−/− mice [6]; low-dose sustainable intervention 50 mg/kg bw from stage I
  bleeding risk: without bleeding risks

## PGEOG
[7]
  half-life in plasma: 4.3 h

## RVPSL [literature antihypertensive peptide, ovotransferrin 328–332, compared for Caco-2 Papp]
Caco-2 cell monolayers [8]
  Papp: 7 ×10⁻⁶ cm/s

## TNGIIR
Caco-2 cell monolayers [8]
  Papp: 4.9 ×10⁻⁶ cm/s
